This data set has as its system southern armyworm (Spodoptera eridania). Kind of data set: Test B.7: control of southern armyworm, leaf-dip on lima bean leaves, larval mortality. The data set is classed as in vivo. As to conditions: single active, neonate larvae, 4 days. How it is done: For evaluating control of southern armyworm (Spodoptera eridania) the test unit consists of Petri dishes containing eight-day-old Henderson bush lima bean leaves and 10 neonate S. eridania larvae.
The compounds or mixtures are formulated using a solution containing […] water and 0.05 vol % of a surfactant (Kinetic). Leaves are dipped into different concentrations of formulated compounds or mixtures and allowed to dry. Four replications are performed.
For experimental mixtures in these tests identical volumes of both mixing partners at the desired concentrations respectively, are mixed together.
After application, Petri dishes are incubated in the dark at 26±1° C., for 4 days. Larval mortality is visually assessed.
Metaflumizone at rates of 2.5 and 5.0 kg ai/ha and Streptomyces galbus strain M1064 at rates of 0.69. 1.39, and 2.79 kg ai/ha were tested singly and in combination for control of southern armyworm, Spodoptera eridania in the laboratory.

The record followed here is patent US20140017216A1, “PESTICIDAL MIXTURES” (BAYER CROPSCIENCE LP, priority 2011, published 2014).

`N#Cc1ccc(CC(=NNC(=O)Nc2ccc(OC(F)(F)F)cc2)c2cccc(C(F)(F)F)c2)cc1` (mixture of isomers) [Metaflumizone, metaflumizone]: the “Observed Mortality” value was 15.0% (application rate 2.5 kg ai/ha) and 47.5% (application rate 5.0 kg ai/ha).
